Source: ChEMBL document CHEMBL2216747, “Effect of daurisoline on HERG channel electrophysiological function and protein expression” (J Nat Prod, 2012)

How the values were obtained:
[1] = test system: IKr; assay: Inhibition of Ikr tail current in guinea pig ventricular myocytes at 10 uM; type: cell-based, Cavia porcellus, Ventricular myocyte
[2] = test system: HEK293; assay: Downregulation of human ERG mRNA expression in HEK293 cells at 30 uM after 24 hrs by RT-PCR analysis; type: ADME, cell-based; details: hek293, 24 h
[3] = test system: HEK293; assay: Downregulation of human ERG mRNA expression in HEK293 cells at 30 uM after 24 hrs by qRT-PCR analysis; type: ADME, cell-based; details: hek293, 24 h
[4] = Inhibition of Ikr tail current in rabbit ventricular myocytes; type: cell-based; details: Oryctolagus cuniculus, Ventricular myocyte
[5] = target: Potassium voltage-gated channel subfamily E member 1 (Oryctolagus cuniculus, UniProt Q28705); assay: Inhibition of Iks tail current in rabbit ventricular myocytes; type: cell-based, Ventricular myocyte
Potassium voltage-gated channel subfamily E member 1, sequence (Q28705 whole entry): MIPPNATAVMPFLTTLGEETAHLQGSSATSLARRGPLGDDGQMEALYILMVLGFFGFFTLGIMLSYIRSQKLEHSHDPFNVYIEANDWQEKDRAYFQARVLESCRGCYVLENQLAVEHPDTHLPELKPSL

[6] = test system: HEK293; assay: Downregulation of human ERG expression in HEK293 cells assessed as decrease in intensity of 135 kDa band at 30 uM after 24 hrs by Western blot analysis; type: ADME, cell-based; details: hek293, 24 h
[7] = Cmax in dog at 30 uM, iv administered as bolus dose; type: ADME, organism-based, Canis lupus familiaris; parameters: dose 30 uM, route intravenous; details: in vivo
[8] = test system: HEK293; assay: Downregulation of human ERG expression in HEK293 cells assessed as change in intensity of 155 kDa band at 1 to 10 uM after 24 hrs by Western blot analysis; type: ADME, cell-based; details: hek293, 24 h
[9] = Cmax in rabbit at 30 uM, iv administered as bolus dose; type: ADME, organism-based, Oryctolagus cuniculus; parameters: dose 30 uM, route intravenous; details: in vivo
[10] = target: IKs (KCNE1) (Cavia porcellus, UniProt Q60409); assay: Inhibition of Iks tail current in guinea pig ventricular myocytes at 100 uM; type: cell-based, Ventricular myocyte
IKs (KCNE1), sequence (Q60409 whole entry): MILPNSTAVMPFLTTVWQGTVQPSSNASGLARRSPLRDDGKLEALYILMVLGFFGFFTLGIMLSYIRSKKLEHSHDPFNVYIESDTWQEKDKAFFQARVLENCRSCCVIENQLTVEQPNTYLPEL

[11] = test system: HEK293; assay: Reduction in human ERG-tail density expressed in HEK293 cells at 30 uM after 24 hrs by densitometric analysis; type: ADME, cell-based; details: hek293, 24 h
[12] = test system: HEK293; assay: Downregulation of human ERG expression in HEK293 cells assessed as change in intensity of 135 kDa band at 1 to 10 uM after 24 hrs by Western blot analysis; type: ADME, cell-based; details: hek293, 24 h
[13] = test system: HEK293; assay: Downregulation of human ERG expression in HEK293 cells assessed as decrease in intensity of 155 kDa band at 30 uM after 24 hrs by Western blot analysis; type: ADME, cell-based; details: hek293, 24 h

IC50 [5]: 52.5 µM
Cmax at 30 µM [7]: 1700 nM
Cmax at 30 µM [9]: 1700 nM
inhibition at 100 µM [10]: 50%
SMILES: COc1cc2c(cc1O)[C@@H](Cc1ccc(O)c(Oc3ccc(C[C@@H]4c5cc(OC)c(OC)cc5CCN4C)cc3)c1)N(C)CC2 [DARUISOLINE]
inhibition at 10 µM [1]: 39%
Activity [2]: Toxic
Activity [3]: Toxic
IC50 [4]: 19.9 µM
Activity [6]: Toxic
Activity [8]: Non-toxic
Activity [11]: Toxic
Activity [12]: Non-toxic
Activity [13]: Toxic
